Assay results from US20050032873A1, “3-Amino chroman and 2-amino tetralin derivatives” (Wyeth, priority 2003, published 2005).
Where two headings read alike, the source gives them in different places.

Columns and labels:
5-HT1A receptor [1] = target: T1, 5-HT1A receptor (Homo sapiens, UniProt P08908); assay: 5-HT1A receptor affinity: displacement of [3H] 8-OH-DPAT; format: binding; set-up: expressed in transfected cells; settings: displacement of [3H] 8-OH-DPAT; CHO cells stably transfected with human 5-HT1A receptors; read-out: 5-HT1A Receptor Affinity Ki
T1 sequence (P08908 1-422): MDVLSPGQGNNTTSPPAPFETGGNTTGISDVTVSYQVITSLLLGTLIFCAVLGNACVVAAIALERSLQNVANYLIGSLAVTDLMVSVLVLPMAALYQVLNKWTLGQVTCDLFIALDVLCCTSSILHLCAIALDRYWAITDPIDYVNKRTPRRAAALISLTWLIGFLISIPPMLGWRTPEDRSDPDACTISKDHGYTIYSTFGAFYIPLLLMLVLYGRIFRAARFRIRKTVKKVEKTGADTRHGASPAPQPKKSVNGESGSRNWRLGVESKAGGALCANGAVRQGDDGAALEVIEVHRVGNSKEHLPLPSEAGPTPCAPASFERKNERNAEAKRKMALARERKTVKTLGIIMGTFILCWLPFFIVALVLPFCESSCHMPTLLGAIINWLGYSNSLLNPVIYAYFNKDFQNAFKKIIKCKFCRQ

[2] = target: T2, cloned human 5-HT1A receptors (Homo sapiens, UniProt P08908); assay: 35S-GTPγS binding assay, 5-HT1A function; format: biochemical; settings: for IC50: antagonist potency, reversal of 8-OH-DPAT, read-out: 5-HT1A Function GTPγS IC50; for EC50: agonist potency
T2 construct: expressed in transfected cells
T2 sequence (P08908 1-422): T1 sequence (P08908 1-422)

5-HT1A receptor [3] = target: T1, 5-HT1A receptor; assay: cAMP accumulation assay, 5-HT1A function; format: cell-based; settings: for IC50: cells marked IC50 (antagonist), read-out: 5-HT1A Function cAMP IC50; for Emax / 5-HT1A Function cAMP (Emax): in brackets after EC50 or IC50; for Emax: read-out: 5-HT1A Function cAMP (Emax); for EC50: cells marked EC50 (agonist)
serotonin transporter = target: T3, serotonin transporter (Rattus norvegicus, UniProt P31652); assay: 5-HT transporter affinity: displacement of 3H-paroxetine from male rat cortical membranes; format: binding; settings: displacement of 3H-paroxetine; male rat cortical membranes; read-out: 5-HT Transporter Affinity Ki
T3 construct: displace ^3H-paroxetine from male rat cortical membranes; from tissue; host or cells: male rat cortical membranes
T3 sequence (P31652 whole entry): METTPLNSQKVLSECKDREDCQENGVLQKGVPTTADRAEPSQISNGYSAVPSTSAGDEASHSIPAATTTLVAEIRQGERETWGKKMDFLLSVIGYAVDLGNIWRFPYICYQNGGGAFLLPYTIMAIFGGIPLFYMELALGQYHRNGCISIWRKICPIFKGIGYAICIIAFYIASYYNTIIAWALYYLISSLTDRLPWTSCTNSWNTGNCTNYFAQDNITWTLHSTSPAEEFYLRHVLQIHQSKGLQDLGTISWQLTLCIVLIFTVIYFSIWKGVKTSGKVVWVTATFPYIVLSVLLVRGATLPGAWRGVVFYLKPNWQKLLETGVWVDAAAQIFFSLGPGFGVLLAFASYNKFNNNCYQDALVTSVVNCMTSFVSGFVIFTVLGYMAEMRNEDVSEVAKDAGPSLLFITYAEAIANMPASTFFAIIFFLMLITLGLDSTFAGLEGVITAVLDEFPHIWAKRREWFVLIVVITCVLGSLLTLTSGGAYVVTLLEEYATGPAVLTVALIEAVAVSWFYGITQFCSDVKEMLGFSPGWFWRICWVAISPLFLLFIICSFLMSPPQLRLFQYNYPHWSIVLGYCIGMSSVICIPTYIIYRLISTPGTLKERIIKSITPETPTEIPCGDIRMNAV

[4] = maximum inhibitory effect, in brackets after IC50
[5] = maximum inhibitory effect, in brackets after IC50, read-out: 5-HT1A Function GTPγS (Imax)
[6] = maximum stimulatory effect, in brackets after EC50, read-out: 5-HT1A Function GTPγS (Emax)

Ki (5-HT1A receptor [1]) [µM] | Ki (serotonin transporter) [µM] | 5-HT1A Function cAMP (Emax) (5-HT1A receptor [3]) [%] | EC50 [2] [µM] | EC50 (5-HT1A receptor [3]) [µM] | Emax [2, 6] [%] | SMILES | IC50 [2] [µM] | 5-HT1A Function GTPγS (Imax) [2, 4] [%] | IC50 (5-HT1A receptor [3]) [µM] | Emax (5-HT1A receptor [3]) [%] | Emax [2, 5] [%] | 5-HT1A Function GTPγS (Emax) ([2]; maximum stimulatory effect, in brackets after EC50) [%]
0.00188 | 0.0095 | 0 | – | – | – | CCCN(C(C)CCCc1c[nH]c2ccc(F)cc12)C1COc2c(F)ccc(C(N)=O)c2C1 (single isomer, unassigned; (-)) [Compound 14b, (−)-8-fluoro-3-[[4-(5-fluoro-1H-indol-3-yl)-1-methylbutyl](propyl)amino]chromane-5-carboxamide] | 0.477 | 100 | 0.11 | – | – | –
0.0373 | 0.0009 | 0 | – | – | – | CCN(C(C)CCc1c[nH]c2ccc(F)cc12)C1COc2c(F)ccc(C(N)=O)c2C1 (single isomer, unassigned; (-)) [Compound 16a, (−)-3-{ethyl[3-(5-fluoro-1H-indol-3-yl)-1-methylpropyl]amino}-8-fluorochromane-5-carboxamide] | 3 | – | 0.187 | – | 100 | –
0.0142 | 0.00112 | 0 | – | – | – | CCCN(CCCc1c[nH]c2ccc(F)cc12)C1CCc2c(F)ccc(OC)c2C1 (single isomer, unassigned; (-)) [Compound 51b, (−)-5-fluoro-N-[3-(5-fluoro-1H-indol-3-yl)propyl]-8-methoxy-N-propyl-1,2,3,4-tetrahydro-2-naphthalenamine] | 0.048 | – | 0.05 | – | 46 | –
0.0733 | 0.322 | 0 | – | – | – | NC(=O)c1ccc(F)c2c1CC(N(CC1CCc3[nH]c4ccc(F)cc4c3C1)C1CCC1)CO2 (single isomer, unassigned; (-)) [Compound 174d, (−)-3-{cyclobutyl[(6-fluoro-2,3,4,9-tetrahydro-1H-carbazol-3-yl)methyl]amino}-8-fluorochromane-5-carboxamide] | 4.75 | 100 | 0.304 | – | – | –
0.392 | 0.619 | – | – | – | – | CCN(CC1CCc2[nH]c3ccc(F)cc3c2C1)[C@H]1COc2c(F)ccc(C(N)=O)c2C1 (single isomer, unassigned; (-)) [Compound 176a] | 4.26 | – | 0.878 | 0 | 92 | –
0.0242 | 0.0855 | – | – | – | – | NC(=O)c1ccc(F)c2c1C[C@@H](NCC1CCc3c([nH]c4ccc(F)cc34)C1)CO2 (single isomer, unassigned; (-)) [Compound 179b] | 6.04 | 100 | 0.956 | 0 | – | –
0.103 | 0.259 | – | – | – | – | NC(=O)c1ccc(F)c2c1CC(N(CCC(=O)c1c[nH]c3ccc(F)cc13)C1CCC1)CO2 (centres unmarked) [Compound 8, 3-{cyclobutyl[3-(5-fluoro-1H-indol-3-yl)-3-oxopropyl]amino}-8-fluorochromane-5-carboxamide] | 1.38 | – | 0.479 | 0 | 100 | –
0.00625 | 0.0109 | – | 0.0305 | 0.0163 | 85 | COC(=O)c1ccc(F)c2c1CC(NCCCc1c[nH]c3ccc(F)cc13)CO2 (centres unmarked) [Compound 10, Methyl 8-fluoro-3-{[3-(5-fluoro-1H-indol-3-yl)propyl]amino}chromane-5-carboxylate] | – | – | – | 70.5 | – | –
0.00088 | 0.159 | – | 0.0933 | 0.0762 | 42 | CCCN(CCC(O)c1csc2ccc(F)cc12)C1COc2c(F)ccc(C(N)=O)c2C1 (centres unmarked) [Compound 17, 8-fluoro-3-[[3-(5-fluoro-1-benzothien-3-yl)-3-hydroxypropyl](propyl)amino]chromane-5-carboxamide] | – | – | – | 74.5 | – | –
0.00372 | 0.127 | – | 0.232 | 0.011 | 100 | CCN(CCCc1csc2ccccc12)C1COc2cccc(OC)c2C1 (centres unmarked) [Compound 18, N-[3-(1-benzothien-3-yl)propyl]-N-ethyl-5-methoxychroman-3-amine] | – | – | – | 93.5 | – | –
0.016 | 0.405 | – | 0.317 | 0.081 | 100 | CCCN(CCCc1csc2ccc(F)cc12)C1COc2cccc(OC)c2C1 (centres unmarked) [Compound 19, N-[3-(5-fluoro-1-benzothien-3-yl)propyl]-5-methoxy-N-propylchroman-3-amine] | – | – | – | 86.5 | – | –
0.00037 | 0.575 | – | 0.0357 | 0.0622 | 84 | CCCN(CCCc1coc2ccccc12)C1COc2c(F)ccc(C(N)=O)c2C1 (centres unmarked) [Compound 20, 3-[[3-(1-benzofuran-3-yl)propyl](propyl)amino]-8-fluorochromane-5-carboxamide] | – | – | – | 88 | – | –

SMILES | Ki (5-HT1A receptor [1]) [µM] | Ki (serotonin transporter) [µM] | 5-HT1A Function cAMP (Emax) (5-HT1A receptor [3]) [%] | EC50 [2] [µM] | EC50 (5-HT1A receptor [3]) [µM] | Emax [2, 6] [%] | IC50 [2] [µM] | 5-HT1A Function GTPγS (Imax) [2, 4] [%] | IC50 (5-HT1A receptor [3]) [µM] | Emax (5-HT1A receptor [3]) [%] | Emax [2, 5] [%] | 5-HT1A Function GTPγS (Emax) ([2]; maximum stimulatory effect, in brackets after EC50) [%]
NC(=O)c1ccc(F)c2c1CC(N(CCCc1c[nH]c3c(F)cc(F)cc13)C1CCC1)CO2 (single isomer, unassigned; (-)) [Compound 9a, (−)-3-{cyclobutyl[3-(5,7-difluoro-1H-indol-3-yl)propyl]amino}-8-fluorochromane-5-carboxamide] | 0.00173 | 0.00334 | – | – | – | – | 0.207 | 100 | 0.0612 | 0 | – | –
CC(CCc1c[nH]c2ccc(F)cc12)N(CC1CC1)C1COc2c(F)ccc(C(N)=O)c2C1 (single isomer, unassigned; (-)) [Compound 15a, (−)-3-{(cyclopropylmethyl)[3-(5-fluoro-1H-indol-3-yl)-1-methylpropyl]amino}-8-fluorochromane-5-carboxamide] | 0.00188 | 0.0102 | 0 | – | – | – | 0.333 | – | 0.0727 | – | 100 | –
NC(=O)c1cccc2c1CC(N(CCCc1c[nH]c3ccc(F)cc13)C1CCC1)CO2 (single isomer, unassigned; (-)) [Compound 134a, (−)-3-{cyclobutyl[3-(5-fluoro-1H-indol-3-yl)propyl]amino}chromane-5-carboxamide] | 0.00066 | 0.00275 | 89 | 0.066 | 0.00387 | – | 0.191 | – | – | – | 60 | 30
NC(=O)c1ccc(F)c2c1C[C@@H](NCC1CCc3[nH]c4ccc(F)cc4c3C1)CO2 (single isomer, unassigned; (-)) [Compound 175a] | 0.038 | 0.0209 | – | – | – | – | 0.429 | 100 | 1.48 | 0 | – | –
CCCN(CC1CCc2[nH]c3ccc(F)cc3c2C1)[C@H]1COc2c(F)ccc(C(N)=O)c2C1 (single isomer, unassigned; (-)) [Compound 177a] | 0.0603 | 5.24 | – | – | – | – | 2.95 | 100 | 0.832 | 0 | – | –
NC(=O)c1ccc(F)c2c1C[C@@H](N(CC1CC1)CC1CCc3[nH]c4ccc(F)cc4c3C1)CO2 (single isomer, unassigned; (-)) [Compound 178a] | 0.117 | 0.347 | – | – | – | – | 8.4 | – | 1.26 | 0 | 100 | –
NC(=O)c1ccc(F)c2c1CC(NCCCc1c[nH]c3ccc(F)cc13)CO2 (centres unmarked) [Compound 1, 8-fluoro-3-{[3-(5-fluoro-1H-indol-3-yl)propyl]amino}chromane-5-carboxamide] | 0.212 | 0.007 | – | 5 | 0.229 | 100 | – | – | – | 79.5 | – | –
CCCN(CCCc1c[nH]c2ccc(F)cc12)C1COc2c(F)ccc(C(N)=O)c2C1 (centres unmarked) [Compound 2, 8-fluoro-3-{[3-(5-fluoro-1H-indol-3-yl)propyl](propyl)amino}chromane-5-carboxamide] | 0.00294 | 0.006 | – | 0.168 | 0.0104 | 77 | – | – | – | 83.5 | – | –
NC(=O)c1ccc(Cl)c2c1CC(N(CCCc1c[nH]c3ccc(F)cc13)C1CCC1)CO2 (centres unmarked) [Compound 7, 8-chloro-3-{cyclobutyl[3-(5-fluoro-1H-indol-3-yl)propyl]amino}chromane-5-carboxamide] | 0.00621 | 0.0032 | – | – | – | – | 1.65 | – | 0.0597 | 0 | 100 | –
COC(=O)c1ccc(F)c2c1CC(N(CCCc1c[nH]c3ccc(F)cc13)C1CCC1)CO2 (centres unmarked) [Compound 11, Methyl 3-{cyclobutyl[3-(5-fluoro-1H-indol-3-yl)propyl]amino}-8-fluorochromane-5-carboxylate] | 0.0738 | 0.161 | – | – | – | – | 0.345 | – | 0.403 | 0 | 62 | –
